Data taken from patent US5770380A (priority 1996, dated 1998).

Target: Horse Cytochrome c (Equus caballus, UniProt P00004)
Assay: Micro calorimetry titration of Cytochrome c
Type: binding
Settings: micro calorimetry titration (FIG. 9); read-out: association constant (converted)
Excerpt: FIG. 9 illustrates a micro calorimetry titration of Cytochrome c with a preferred embodiment of the present invention.
Horse Cytochrome c is an electron-transferring protein with a heme prosthetic group. The size of this protein is 12,384 Dalton and the surface is highly positively charged with lysine and arginine residues. For the X-ray crystal structure of Cytochrome c, see: Bushnell, G. W.; Louie, G. D.; Brayer, G. D. J. Mol. Biol. 1990, 214, 585. NMR titration of Cytochrome c with a preferred embodiment of the invention, designated 1 below, was performed under the condition described in FIG. 8 and two of the hyperfine region protons from heme in Cytochrome c, heme 8-CH3 and heme 3-CH3, were followed. […] The direction and the size of shifts are about the same as those of the titration between Cytochrome c and Cytochrome c peroxydase and peak broadening was also observed in the peroxydase titration. For NMR titration of cytochrome c and cytochrome-c peroxydase, see: Satterlee, J. D.; Moench, S. J.; Erman, J. E. Biochemica et Boiphysica Acta 1987, 912, 87-97. FIG. 8 is consistent with 1:1 binding. [drawing 1] Micro calorimetry titration of Cytochrome c with 1 was also performed (see FIG. 9). The association constant was calculated as 136000M^-1 therefore ΔG=-7.0 kcal/mol. As the enthalpy of the binding event is simulated as -5.6 kcal/mol, the entropy portion should be -1.4 kcal/mol. […]

Sequence of Horse Cytochrome c (P00004 whole entry): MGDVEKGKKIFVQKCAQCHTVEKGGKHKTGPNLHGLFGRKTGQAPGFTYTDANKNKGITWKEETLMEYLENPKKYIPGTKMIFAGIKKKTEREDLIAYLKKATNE

For `CCCCOc1c2cc(C(=O)Nc3cc4cc(c3)C(=O)NCC(=O)N[C@@H](CC(=O)O)C(=O)NCC(=O)N[C@@H](CC(=O)O)C(=O)NC4)cc1Cc1cc(C(=O)Nc3cc4cc(c3)C(=O)NCC(=O)N[C@@H](CC(=O)O)C(=O)NCC(=O)N[C@@H](CC(=O)O)C(=O)NC4)cc(c1OCCCC)Cc1cc(C(=O)Nc3cc4cc(c3)C(=O)NCC(=O)N[C@@H](CC(=O)O)C(=O)NCC(=O)N[C@@H](CC(=O)O)C(=O)NC4)cc(c1OCCCC)Cc1cc(C(=O)Nc3cc4cc(c3)C(=O)NCC(=O)N[C@@H](CC(=O)O)C(=O)NCC(=O)N[C@@H](CC(=O)O)C(=O)NC4)cc(c1OCCCC)C2` [compound 1, Calix[4]arenetetracyclicpeptide1], the Kd was 7.35 µM.
